The text below walks through data of patent US20250052754A1, “COMPOSITIONS AND METHODS FOR DIAGNOSIS, TREATMENT OF AND PREVENTION OF KIDNEY DISEASE” (XORTX THERAPEUTICS, INC., priority 2021, published 2025).

≈ marks a conversion by molar mass, not a printed value. Bounds are passed on as bounds.

Data set [1] relates to rat model of polycystic kidney disease (PCK). The data set can be described thus: uricase inhibition by oxonic acid in rat model of polycystic kidney disease (FIG. 6A). It is filed as in vivo. Here is the method:
(§1) FIG. 6: provides data showing that uricase inhibition by oxonic acid (OXO) and commensurate increased uric acid is associated with increased total kidney to body weight ratio (2K/BWT) in a rat model of polycystic kidney disease (PCK) and in a mouse model of polycystic kidney disease (Pkd1RC/RC). Rodent models of polycystic kidney disease were treated with a uricase enzyme inhibitor—oxonic acid (OXO)—to decrease the metabolism of uric acid to allantoin, thereby chronically increasing circulating serum uric acid concentration. […] Increased serum uric acid is associated with structural and functional changes in kidney function. Increased creatinine is associated with decreased filtering capacity of kidneys. disease.

For data set [2], the system named is mouse model of polycystic kidney disease (Pkd1RC/RC). Nature of the data set: uricase inhibition by oxonic acid in mouse model of polycystic kidney disease (FIG. 6B). It is filed as in vivo. Here is the method: as §1
Data set [3] has as its system rodent model of polycystic kidney disease. Nature of the data set: uricase inhibition by oxonic acid, kidney function in rodent model of polycystic kidney disease (FIG. 7). Type of data set: in vivo.
For data set [4], the system named is rodent model of polycystic kidney disease—mouse RC/RC. The data set can be described thus: oxonic acid exposure with or without OXY+L in mouse RC/RC, kidney size (FIG. 9). It is filed as in vivo. Particulars: oxonic acid (OXO) exposure alone. The source says:
FIG. 9: is a graph showing that in a rodent model of polycystic kidney disease—mouse RC/RC-oxonic acid (OXO) exposure increased kidney size.

Data set [5] in a line: oxypurinol solubility with and without metformin. It is filed as physicochemical. The source says: The term “organic base” as used herein refers to the organic base may be (a) a Class 1 base with a pKa1 between about 7 to 13 including but not limited to L-arginine, D-arginine, choline, L-lysine, D-lysine, and caffeine. In an alternative embodiment, the organic base is a biguanide (U.S. Pat. No. 9,480,663) or biguanidine such as metformin, phenformin, buformin or a salts thereof. It is noted that metformin has multiple beneficial effects in the context of compositions and methods described herein. First, it can act as a solubilizing agent for oxypurinol to increase oral bioavailablity. Secondarily, it can act as an alkalinizing agent. Thirdly, metformin here can act as a uric acid solubilizing agent. […] The gliflozin family of SGLT2 inhibitors are also basic and can serve as an organic base in accord with the teachings herein.

Where [6] appears, read: 8 weeks of treatment with oxonic acid, compared to untreated animals.
Where [7] appears, read: PCK rat, after 70 days exposure to oxonic acid, P<0.05.
Where [8] appears, read: Pkd1RC/RC mouse, after 70 days exposure to oxonic acid, P<0.05.

Turning to `O=C(O)c1nc(=O)[nH]c(=O)[nH]1` [oxonic acid], the total kidney volume entry in data set [1] (setting [6]) and in data set [2] (setting [6]) was “increased significantly” each time. The serum uric acid result in data set [1] (PCK rat, after 70 days exposure to oxonic acid) is listed as “increased”; in data set [2] (Pkd1RC/RC mouse, after 70 days exposure to oxonic acid), “increased”. For the same compound, the cyst size entry in data set [1] (setting [7]) and in data set [2] (setting [8]) was “increased” each time. Moreover, the “total kidney to body weight ratio (2K/BWT)” value in data set [1] (setting [7]) and in data set [2] (setting [8]) was “increase” in each case. The serum creatinine result is reported as “increased” in data set [1] (PCK rat, after 70 days exposure to oxonic acid, P<0.07) and “increased” in data set [2] (setting [8]). Further, in data set [3], the “creatinine in serum (kidney function)” value is given as “increased”. Further, the kidney size result in data set [4] is “increased”.

As for `O=c1[nH]c(=O)c2c[nH]nc2[nH]1` [oxypurinol], the solubility – broadly, the concentration that dissolves in the medium under given conditions – in data set [5] (1:01 to 1:10 ratio of oxypurinol to metformin) is at least 16800 µg/mL; in data set [5] (without metformin (starting value)), 200 µg/mL (≈ 1310 µM).
